# Measurements taken from patent US10682388B2, “Targeting of PELP1 in cancer therapy” (THE BOARD OF REGENTS OF THE UNIVERSITY OF TEXAS SYSTEM, priority 2014, dated 2020).
# Entries after “also recorded” stand apart in the source; their conditions may differ.
# What was measured:
# ZRPELP1 cells = assay: Soft agar colony formation assay; type: cell-based, Human; conditions: 10 μM every three days, colonies counted day 14, FIG. 5C
# Protocol: FIGS. 5A-D. (FIG. 5A) ZR75vec, ZR75PELP1, MCF7vec and MCF7PELP1 cells were plated in the top of a Boyden chamber transwell, treated with TAT, PIP1 or PIP2 (10 μM) and absorbance was measured at 12 hours in triplicate. (FIG. 5B) MCF7vec, MCFP7ELP1, ZR75vec and ZR75PELP1 cells were treated in triplicate with TAT, PIP1 or PIP2 (10 μM) every 3 days, fixed with methanol on day 10 and stained with crystal violet. Average colonies per well are shown. (FIG. 5C) ZR75vec and ZR75PELP1 cells were plated in triplicate in agar with 8% RPMI with TAT, PIP1 or PIP2 (10 μM). Colonies were counted on day 14, representative images are shown on right. (FIG. 5D) ZR75 cells were plated on coverslips in triplicate and treated with TAT or PIP1 (10 μM) for 24 hours. Cells were fixed with paraformaldehyde and labeled with TUNEL and DAPI, representative images are shown on right.
# Model cells MCF7, MCF7-PELP1, ZR75 and ZR75-PELP1 were seeded in a 0.6% agar solution with RPMI/10% FBS over a base agar layer in 35 mm plates in triplicate with TAT, PIP1, or PIP2 (10 μM). Media with peptide was added every 3 days and colonies were counted after 14 days.
# [1] = system: ZRPELP1 and MCF7-PELP1 cells; assay: Mammosphere formation assay; type: cell-based, Human; conditions: 10 μM and 20 μM, FIG. 12
# Protocol: FIG. 12. Effect of PIP1 on mammosphere formation. Single-cell suspensions of ZR75-PELP1 were plated in triplicate wells at a density of 10,000 cells per ml in mammosphere medium in non-adherent plates. Cultures were treated with indicated concentration of PIP1 and mammospheres were counted after 7 days. ZR75PELP1 and MCF7PELP1 cells were FACS sorted for CD44-APC^high (Milteny Biotec) and CD24-PE^low (Milteny Biotec) cell surface markers. A single cell suspension of model cells ZR75-PELP1 were seeded in mammosphere media in a low adherent 96-well plate with TAT or PIP (10, 20 or 50 μM). Media containing peptide was added on day 4 and mammospheres were counted and imaged on day 8 (Shaw et al., 2012).
# [2] = system: MCF7-TamR and MCF7-LTLT cells; assay: Therapy resistance assays, MTT; type: cell-based, Human; conditions: FIGS. 4D-E, 11
# Protocol: FIGS. 4A-E. (FIG. 4A) ZR75vec, ZR75PELP1, MCF7vec and MCF7PELP1 cells were treated in triplicate with TAT, PIP1 or PIP1 deletions (Del1, Del2, Del3) at 10 uM every 3 days and proliferation was measured by MTT assay on day 7. (FIG. 4B) ZRPELP1 cells were transfected with ERE-luciferase and treated with TAT, PIP1, or PIP2 for 24 hours and with estradiol for 12 hours. Relative luciferase activity was measured in triplicate. (FIG. 4C) ZR75 cells were grown in 5% DCC media for 72 hours, treated with TAT or PIP1 every 3 days, and treated with estradiol 10^−7 M for 12 hours. Proliferation was measured in triplicate on day 7 by MTT assay at 595 nm. (FIG. 4D) MCF7-Letrozole resistant cells were grown in 5% DCC media for 72 hours, treated with TAT, PIP1 or PIP2 every 3 days, and letrozole or estradiol 10^−7 M for 12 hours. Proliferation was measured in triplicate on day 7 by MTT assay at 595 nm. (FIG. 4E) MCF7-Tamoxiefn resistant cells were grown in 5% DCC media for 72 hours, treated with TAT, PIP1 or PIP2 every 3 days, and tamoxifen or estradiol 10^−7 M for 12 hours. Proliferation was measured in triplicate on day 7 by MTT assay at 595 nm.
# FIG. 11. Cell proliferation assay: letrozole-resistant MCF-7-LTLT cells and Tamoxifen resistant MCF7-Tam cells were treated with TAT, PIP1, or PIP2 (10 μM)+/− letrozole or Tamoxifen.
# Tamoxifen (Tam) therapy resistant MCF7-TamR and letrozole resistant MCF7-LTLT cells were cultured in tamoxifen or letrozole (10^-7M) containing media in the presence or absence of peptides and proliferation was measured by MTT assay (Sigma) following manufacturer's instructions.
# [3] = system: Beta-catenin reporter in ZRGST and ZRPELP1GST cells; assay: TopFlash β-catenin reporter assay; type: cell-based; conditions: 10 μM, 24 hours, independent of ERα, FIG. 7C
# Protocol: FIGS. 7A-E. (FIG. 7A) Bacterial purified PELP1 was incubated with biotin-tagged peptides bound to avidin beads for one hour. Beads were washed, run on SDS-PAGE gel and probed for PELP1 expression. Input of bacterial PELP1 is shown as control. (FIG. 7B) Recombinant G9a-GST was bound to glutathione beads and incubated with purified PELP1 and peptides for 2 hours. Beads were washed and run on SDS-PAGE gel. (+2 μM, ++5 μM, +++10 μM). (FIG. 7C) ZRGST and ZRPELP1GST cells were transfected in triplicate with TopFlash β-catenin reporter and treated with TAT or PIP1 (10 μM) for 24 hours. Relative luciferase activity is shown. (FIG. 7D) MCF7vec and MCF7PELP1 cells were treated with TAT or PIP1 (10 μM) and toxicity was measured by CytoTox-Flour Cytotoxicity Assay. (FIG. 7E) ZR75 and ZR75PELP1 cells were treated with TAT, PIP1 or PIP2 for 24 hours and immunoblotted for PELP1 and ERα expression with actin as the loading control.
sequence,measurement,setting,value
GRKKRRQRRRGGMVEFRWSCPGRRKAKA [PIP1],colony formation in soft agar (anchorage independence),ZRPELP1 cells,substantial decrease in colony formation
same,number of mammospheres,[1],significant decrease in the number of mammospheres
same,size of the mammospheres,[1],substantially decreased
same,proliferation of therapy resistant cell lines,"[2]; MCF7-TamR and MCF7-LTLT, 10 μM",inhibited the proliferation; also recorded: efficiently reduce the growth of therapy resistant cells
same,"combined effect on proliferation with hormonal therapy (tamoxifen, letrozole)",[2]; therapy resistant cells,synergistic inhibition of proliferation with tamoxifen
same,Beta-catenin reporter activity,[3],no significant effect on reporter activity
